Data: patent publication US20160229835A1, “NOVEL PYRIDYLOXYACETYL TETRAHYDROISOQUINOLINE COMPOUNDS USEFUL AS NAMPT INHIBITORS” (ELI LILLY AND COMPANY, priority 2013, published 2016)
Read-outs that look alike come from different tables or passages of the source.

Columns and labels:
[1] = tested on: A2780 tumor model; assay: Efficacy in Xenograft Tumor Models, A2780; assay type: in vivo; details: nude mice, 4-day-on and 3-day-off schedule for 17 days
Procedure: The purpose of this assay is to measure reduction in tumor volume in response to test compound administration. A2780 and NCI-H1155 (NSCLC) cells are grown as described above for IVTI studies. Cells are harvested and injected subcutaneously onto the rear flank of nude mice. When tumors are established (7-21 days after implant), animals are randomized and grouped into control and test groups (7 animals/group). The test compound is formulated in 20% of CAPTISOL® and 25 mM of phosphate buffer, pH 2. Test compound and vehicle (20% of CAPTISOL® and 25 mM of phosphate buffer, pH 2 without compound) are administered by oral gavage. Tumor response is determined by tumor volume measurement (caliper) performed twice a week during the course of treatment and reported as percent of tumor volume of each treatment group divided by tumor volume of the vehicle control group. […] For example, Example 1 in H1155 tumor model, when dosed at 10 mg/kg (twice a day (BID) on a 4-day-on and 3-day-off schedule for 17 days, a T/C of 5.5 (P value<0.001 based on T-test) is achieved; when dosed at 20 mg/kg on the same schedule, a T/C of −81.1 (P value<0.001 based on T-test) is achieved. Example 2 in H1155 tumor model, when dosed at 8 mg/kg (twice a day (BID) on a 4-day-on and 3-day-off schedule for 17 days, a T/C of 5.2 (P value<0.001 based on T-test) is achieved; when dosed at 16 mg/kg on the same schedule, a T/C of −82.7 (P value<0.001 based on T-test) is achieved. Example 1 in A2780 tumor model, when dosed at 10 mg/kg (twice a day (BID) on a 4-day-on and 3-day-off schedule for 17 days, a T/C of 41.7 (P value<0.007 based on T-test) is achieved; when dosed at 20 mg/kg on the same schedule, a T/C of 2.4 (P value<0.001 based on T-test) is achieved.

[2] = tested on: KLE; assay: Cell Proliferation Assay ±NA, KLE; assay type: cell-based; details: Homo sapiens, endometrium, treatment time 72 hr
Procedure: (§1) The purpose of this assay is to measure the ability of a compound to inhibit proliferation of endometrium, kidney, adrenal gland, and autonomic ganglia cancer cell lines dependent on the NAMPT-mediated NAD^+ formation in the presence or absence of NA (10 μM) in vitro. One day before the planned initiation of compound treatment portion of the assay, one vial of assay ready frozen cells is thawed, and the cells are grown overnight in the media as shown in Table 3 under 5% CO2 at 37° C. Then, the cell layer is briefly rinsed with 0.25% (w/v) Trypsin-0.038% (w/v) EDTA solution followed with the addition of 3.0 ml of Trypsin-EDTA solution. Once the cell layer is dispersed, 8.0 ml of complete growth medium (Table 3) is added and cells are aspirated by gently pipetting. The cell suspension is transferred to a centrifuge tube and centrifuged at 800-1000 rpm for 3-5 minutes. The supernatant is discarded using a vacuum pump. The cell pellet is suspended in a complete medium by gently pipetting. The cell numbers are counted and adjusted to the appropriate density (Table 3). […] The bottom of each plate is pasted with a white back seal and luminescence is recorded using a Flexstation 3 with the following settings: Luminescence and integration time of 500 ms.

[3] = tested on: Caki-1; assay: Cell Proliferation Assay ±NA, Caki-1; assay type: cell-based; details: Homo sapiens, Caki-1, kidney, treatment time 72 hr
Procedure: as §1

[4] = tested on: CHP-212; assay: Cell Proliferation Assay ±NA, CHP-212; assay type: cell-based; details: Homo sapiens, CHP-212, autonomic ganglia, treatment time 72 hr
Procedure: as §1

[5] = tested on: 786-0; assay: Cell Proliferation Assay ±NA, 786-0; assay type: cell-based; details: Homo sapiens, 786-0, kidney, treatment time 48 hr
Procedure: as §1

[6] = tested on: OS-RC-2; assay: Cell Proliferation Assay ±NA, OS-RC-2; assay type: cell-based; details: Homo sapiens, OS-RC-2, kidney, treatment time 72 hr
Procedure: as §1

[7] = tested on: GOTO; assay: Cell Proliferation Assay ±NA, GOTO; assay type: cell-based; details: autonomic ganglia, treatment time 96 hr
Procedure: as §1

[8] = NA 0.0 μM, read-out: IC50 (μM) NA (0.0 μM)
[9] = NA 10 μM, read-out: IC50 (μM) NA (10 μM)

IC50 [5, 8]	IC50 [5, 9]	SMILES	T/C (tumor volume of treatment group divided by vehicle control group) ([1]; 10 mg/kg BID oral)	T/C (tumor volume of treatment group divided by vehicle control group) ([1]; 20 mg/kg BID oral)	IC50 [2, 8]	IC50 [2, 9]	IC50 [3, 8]	IC50 [3, 9]	IC50 [4, 8]	IC50 [4, 9]	IC50 [6, 8]	IC50 [6, 9]	IC50 [7, 8]	IC50 [7, 9]	T/C (tumor volume of treatment group divided by vehicle control group) ([1]; 8 mg/kg BID oral)	T/C (tumor volume of treatment group divided by vehicle control group) ([1]; 16 mg/kg BID oral)
0.07 µM	0.04 µM	CC(C)(O)CS(=O)(=O)Nc1ccc2c(c1)CCN(C(=O)COc1cccnc1)C2 [Example 1, 2-Hydroxy-2-methyl-N-[2-[2-(3-pyridyloxy)acetyl]-3,4-dihydro-1H-isoquinolin-6-yl]propane-1-sulfonamide]	41.7%	2.4%	0.04 µM	> 2 µM	0.13 µM	0.11 µM	0.07 µM	0.07 µM	> 2 µM	> 2 µM	0.02 µM	0.02 µM	–	–
–	–	COCCS(=O)(=O)Nc1ccc2c(c1)CCN(C(=O)COc1cccnc1)C2 [Example 2, 2-Methoxy-N-[2-[2-(3-pyridyloxy)acetyl]-3,4-dihydro-1H-isoquinolin-6-yl]ethanesulfonamide]	–	–	–	–	–	–	–	–	–	–	–	–	40.5%	1.5%
